# In ChEMBL document CHEMBL1201862, “PubChem BioAssay data set” (2004):
# Calls of active or inactive are those of the source.
# Assays:
# [1] = biological target: T1, Dual specificity protein phosphatase 3 (Homo sapiens, UniProt P51452); assay: VHR1 phosphatase inhibitors, biochemical (AID 1878)
# [2] = biological target: T2, Dual specificity protein phosphatase 6 (Rattus norvegicus, UniProt Q64346); assay: inhibition of rat DUSP6 enzyme activity – biochemical, in vitro, primary screen (AID 425)
# T2 sequence (Q64346 whole entry): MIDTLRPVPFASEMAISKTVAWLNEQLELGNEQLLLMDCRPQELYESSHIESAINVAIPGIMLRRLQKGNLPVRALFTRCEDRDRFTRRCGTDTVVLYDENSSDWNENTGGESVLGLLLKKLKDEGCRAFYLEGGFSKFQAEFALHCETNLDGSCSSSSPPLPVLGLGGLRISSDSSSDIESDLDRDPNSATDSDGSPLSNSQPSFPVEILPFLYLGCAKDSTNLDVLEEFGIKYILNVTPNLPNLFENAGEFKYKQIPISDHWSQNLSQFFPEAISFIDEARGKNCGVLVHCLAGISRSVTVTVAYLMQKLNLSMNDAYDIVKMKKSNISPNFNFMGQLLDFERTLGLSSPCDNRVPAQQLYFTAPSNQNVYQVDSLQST
# [3] = biological target: T3, Carboxy-terminal domain RNA polymerase II polypeptide A small phosphatase 1 (Homo sapiens, UniProt Q9GZU7); assay: CTDSP1 inhibitors, concentration-response, biochemical, absorbance readout, ultra-high-throughput screen actives (AID 540297); format: functional
# T3 sequence (Q9GZU7 whole entry): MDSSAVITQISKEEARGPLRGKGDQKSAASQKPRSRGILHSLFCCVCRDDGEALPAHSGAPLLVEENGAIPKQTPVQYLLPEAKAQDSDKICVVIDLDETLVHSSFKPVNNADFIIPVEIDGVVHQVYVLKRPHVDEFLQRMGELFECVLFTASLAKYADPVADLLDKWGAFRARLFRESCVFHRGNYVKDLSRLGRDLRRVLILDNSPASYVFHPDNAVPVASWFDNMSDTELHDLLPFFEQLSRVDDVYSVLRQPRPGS
# [4] = biological target: T4, RNA-binding protein pos-1 (Caenorhabditis elegans, UniProt G5EF15); assay: disruptors of C. elegans POS-1 RNA interaction – biochemical, fluorescence polarization, dose response (AID 1964);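 further: purified POS-1 fused to maltose binding protein made in E. coli; potency of compounds blocking POS-1 binding to fluorescent RNA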
# T4 sequence (G5EF15 whole entry): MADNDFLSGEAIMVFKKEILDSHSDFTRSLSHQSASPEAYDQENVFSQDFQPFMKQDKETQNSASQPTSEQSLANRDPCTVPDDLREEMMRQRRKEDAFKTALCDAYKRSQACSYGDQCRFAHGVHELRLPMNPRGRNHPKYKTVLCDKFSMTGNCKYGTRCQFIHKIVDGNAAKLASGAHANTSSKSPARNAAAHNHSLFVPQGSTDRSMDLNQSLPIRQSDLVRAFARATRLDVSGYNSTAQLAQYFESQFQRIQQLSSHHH
# [5] = biological target: T5, Zinc finger protein mex-5 (Caenorhabditis elegans, UniProt Q9XUB2); assay: potency of MEX-5 RNA-binding blockers – biochemical, C. elegans, fluorescence polarization, dose response (AID 1960)
# T5 sequence (Q9XUB2 whole entry): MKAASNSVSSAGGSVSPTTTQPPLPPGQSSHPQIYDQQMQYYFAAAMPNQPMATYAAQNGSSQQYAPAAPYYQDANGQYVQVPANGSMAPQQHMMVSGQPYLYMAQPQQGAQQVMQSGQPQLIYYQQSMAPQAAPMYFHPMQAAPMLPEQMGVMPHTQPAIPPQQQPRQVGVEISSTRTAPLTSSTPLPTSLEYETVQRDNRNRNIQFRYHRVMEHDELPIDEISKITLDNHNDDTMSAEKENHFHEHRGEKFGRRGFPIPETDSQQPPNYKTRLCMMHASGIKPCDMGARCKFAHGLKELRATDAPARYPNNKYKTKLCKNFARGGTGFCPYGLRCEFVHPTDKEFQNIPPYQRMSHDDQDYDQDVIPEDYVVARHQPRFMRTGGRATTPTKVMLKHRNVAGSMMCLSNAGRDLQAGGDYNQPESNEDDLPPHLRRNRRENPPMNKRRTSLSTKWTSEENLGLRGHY
# [6] = biological target: T1, Dual specificity protein phosphatase 3; assay: VHR1 phosphatase inhibitors, primary screen, biochemical, absorbance, uHTS (AID 1654)
# CAAX prenyl protease 2 = biological target: T6, CAAX prenyl protease 2 (Saccharomyces cerevisiae S288c, UniProt Q03530); format: biochemical
# T6 sequence (Q03530 whole entry): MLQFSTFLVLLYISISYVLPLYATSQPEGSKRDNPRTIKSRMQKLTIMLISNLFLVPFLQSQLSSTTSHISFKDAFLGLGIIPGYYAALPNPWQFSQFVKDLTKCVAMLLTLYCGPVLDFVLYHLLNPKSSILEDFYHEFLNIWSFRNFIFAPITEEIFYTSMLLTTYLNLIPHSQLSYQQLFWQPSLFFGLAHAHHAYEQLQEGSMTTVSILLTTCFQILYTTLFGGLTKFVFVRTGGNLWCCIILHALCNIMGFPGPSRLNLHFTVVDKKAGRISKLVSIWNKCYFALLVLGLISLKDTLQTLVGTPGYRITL
# [7] = toxicity toward cultured mammalian cells – cell-based, plate reader, cherry-pick samples, cytotoxicity control, dose response (AID 504397); format: functional
# [8] = biological target: T7, Tyrosine-protein phosphatase non-receptor type 22 (Homo sapiens, UniProt Q9Y2R2); format: functional
# T7 sequence (Q9Y2R2 whole entry): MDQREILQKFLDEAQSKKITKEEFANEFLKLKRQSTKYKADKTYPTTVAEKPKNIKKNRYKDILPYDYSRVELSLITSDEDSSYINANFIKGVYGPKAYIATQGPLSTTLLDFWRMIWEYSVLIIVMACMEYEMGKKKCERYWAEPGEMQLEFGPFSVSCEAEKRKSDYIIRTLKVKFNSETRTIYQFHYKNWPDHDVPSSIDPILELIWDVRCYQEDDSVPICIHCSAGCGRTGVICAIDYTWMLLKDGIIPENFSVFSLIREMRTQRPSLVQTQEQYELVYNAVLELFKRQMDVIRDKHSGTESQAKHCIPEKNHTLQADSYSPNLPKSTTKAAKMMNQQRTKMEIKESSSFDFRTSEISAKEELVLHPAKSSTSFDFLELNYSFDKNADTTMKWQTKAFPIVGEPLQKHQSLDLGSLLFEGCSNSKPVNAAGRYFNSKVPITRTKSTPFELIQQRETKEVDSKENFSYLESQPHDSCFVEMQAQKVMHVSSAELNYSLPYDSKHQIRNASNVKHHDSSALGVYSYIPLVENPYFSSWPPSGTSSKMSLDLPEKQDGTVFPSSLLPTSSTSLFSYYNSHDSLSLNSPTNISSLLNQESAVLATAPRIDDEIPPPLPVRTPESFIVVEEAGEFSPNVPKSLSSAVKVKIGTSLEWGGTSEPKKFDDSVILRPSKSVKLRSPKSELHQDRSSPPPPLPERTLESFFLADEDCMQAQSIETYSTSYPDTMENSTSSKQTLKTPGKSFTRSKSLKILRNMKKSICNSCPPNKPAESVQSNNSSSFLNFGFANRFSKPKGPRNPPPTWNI
# [9] = biological target: T8, Tyrosine-protein phosphatase non-receptor type 7 (Homo sapiens, UniProt P35236); format: functional
# T8 sequence (P35236 whole entry): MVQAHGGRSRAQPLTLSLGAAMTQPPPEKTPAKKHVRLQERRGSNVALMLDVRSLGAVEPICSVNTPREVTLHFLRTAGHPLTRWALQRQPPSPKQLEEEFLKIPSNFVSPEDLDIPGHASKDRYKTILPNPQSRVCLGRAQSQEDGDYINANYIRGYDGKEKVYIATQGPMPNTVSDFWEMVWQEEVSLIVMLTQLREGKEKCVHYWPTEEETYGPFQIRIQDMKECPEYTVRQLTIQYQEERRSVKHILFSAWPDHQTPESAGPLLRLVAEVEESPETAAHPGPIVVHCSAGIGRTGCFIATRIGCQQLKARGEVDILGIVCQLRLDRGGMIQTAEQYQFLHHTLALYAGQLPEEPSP
# [10] = biological target: T7, Tyrosine-protein phosphatase non-receptor type 22; format: functional; remark: listed apart in the source
# SUMO-activating enzyme = SUMO-activating enzyme (Homo sapiens, UniProt Q9UBT2); assay: blockers of UBC9-mediated SUMO conjugation – biochemical, AlphaScreen, SUMOylation inhibitor project, confirmation (AID 2018); format: functional
# [11] = biological target: T9, Corticotropin-releasing factor receptor 2/Corticotropin-releasing factor-binding protein (Homo sapiens, UniProt P24387+Q13324); assay: activators of CRF receptor 2 with binding protein – uHTS hits, confirmation (AID 602473); format: functional; settings: read-out: EC50_Mean
# T9 sequence (Q13324 whole entry): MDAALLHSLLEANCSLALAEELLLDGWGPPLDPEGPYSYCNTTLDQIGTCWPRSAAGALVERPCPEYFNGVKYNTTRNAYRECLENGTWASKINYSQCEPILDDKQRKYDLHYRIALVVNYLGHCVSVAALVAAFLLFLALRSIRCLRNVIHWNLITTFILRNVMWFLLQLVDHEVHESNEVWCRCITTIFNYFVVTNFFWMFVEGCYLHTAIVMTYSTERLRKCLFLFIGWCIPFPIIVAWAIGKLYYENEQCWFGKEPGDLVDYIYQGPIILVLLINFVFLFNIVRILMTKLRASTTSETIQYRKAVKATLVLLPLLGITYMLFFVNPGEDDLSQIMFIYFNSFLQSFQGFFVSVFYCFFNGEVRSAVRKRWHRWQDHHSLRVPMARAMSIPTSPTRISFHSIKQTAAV
# T9 sequence (P24387 whole entry): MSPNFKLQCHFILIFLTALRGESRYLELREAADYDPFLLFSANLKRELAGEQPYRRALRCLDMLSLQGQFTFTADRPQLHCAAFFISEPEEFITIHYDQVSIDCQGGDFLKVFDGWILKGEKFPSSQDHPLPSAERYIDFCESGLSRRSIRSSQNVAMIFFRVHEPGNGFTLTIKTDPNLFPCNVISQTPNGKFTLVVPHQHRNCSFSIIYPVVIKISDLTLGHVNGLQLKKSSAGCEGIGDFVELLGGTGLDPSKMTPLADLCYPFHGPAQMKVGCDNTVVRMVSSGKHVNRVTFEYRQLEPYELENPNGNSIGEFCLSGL
# [12] = biological target: T10, Runt-related transcription factor 1/Core-binding factor subunit beta (Homo sapiens, UniProt Q01196+Q13951); assay: disruptors of Runt domain/CBFb-SMMHC interaction – biochemical, FRET, Cerulean-Runt, Venus-CBFb-SMMHC, uHTS, […] (AID 1434); format: protein assay
# [13] = biological target: T10, Runt-related transcription factor 1/Core-binding factor subunit beta; assay: Runt domain/CBFb-SMMHC interaction disruptors – biochemical, TR-FRET (AID 1438); format: protein assay
# Troponin, cardiac muscle = Troponin, cardiac muscle (Homo sapiens, UniProt P19429+P45379+P63316); assay: Fluorescence-based biochemical high throughput dose response assay for activators of the calcium sensitivity of cardiac Regulated Thin Filaments (RTF). [Related pubchem assays (depositor defined):AID493008, AID493018, AID504382, AID504383]; format: protein-complex assay
# [14] = biological target: T8, Tyrosine-protein phosphatase non-receptor type 7; assay: inhibition of hematopoietic tyrosine phosphatase HePTP – biochemical, set 2, SAR follow-up (AID 449736); format: functional
# Cannabinoid receptor 2 [15] = biological target: T11, Cannabinoid receptor 2 (Homo sapiens, UniProt P34972); assay: SAR analysis of agonists of the Cannabinoid Receptor 2 using an Image-Based Assay - Set 3. [Related pubchem assays (depositor defined):AID2013, AID2026]; format: functional
# Cannabinoid receptor 1 [16] = biological target: T12, Cannabinoid receptor 1 (Homo sapiens, UniProt P21554); assay: SAR analysis of antagonists of the Cannabinoid Receptor 1 using an Image-Based Assay - Set 4. [Related pubchem assays (depositor defined):AID2013, AID2026]; format: functional
# [17] = biological target: T13, G-protein coupled receptor 35 (Homo sapiens, UniProt Q9HC97); assay: SAR analysis of Antagonists of the GPR35 Receptor using an Image-Based Assay - Set 6. [Related pubchem assays (depositor defined):AID2013, AID2026]; format: functional
# [18] = biological target: G-protein coupled receptor 55 (Homo sapiens, UniProt Q9Y2T6); assay: SAR Analysis of Selective Antagonists of GPR55 using an Image-Based Assay - Set 4. [Related pubchem assays (depositor defined):AID2013, AID2026]; format: functional;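 further: antagonism of response to 5 µM lysophosphatidylinositol agonist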
# Cannabinoid receptor 1 [19] = biological target: T12, Cannabinoid receptor 1; assay: SAR analysis of agonists of the Cannabinoid Receptor 1 using an Image-Based Assay - Set 4. [Related pubchem assays (depositor defined):AID2013, AID2026]; format: functional
# [20] = biological target: T13, G-protein coupled receptor 35; assay: SAR analysis of Agonists of the GPR35 Receptor using an Image-Based Assay - Set 4. [Related pubchem assays (depositor defined):AID2013, AID2026]; format: functional
# Cannabinoid receptor 2 [21] = biological target: T11, Cannabinoid receptor 2; assay: SAR analysis of antagonists of the Cannabinoid Receptor 2 using an Image-Based Assay - Set 3. [Related pubchem assays (depositor defined):AID2013, AID2026]; format: functional
smiles,measurement,setting,value
Cc1ccc(NC(=O)CN2C(=O)S/C(=C\c3cccn3-c3cccc(C(=O)O)c3)C2=O)cc1C,IC50,[1],4.36 µM (active)
same,IC50,[2],17.2 µM (active)
same,IC50,[3],3.28 µM (active)
same,EC50,[4],> 300 µM (not active)
same,EC50,[5],> 300 µM (not active)
same,IC50,[6],6.14 µM (active)
COc1ccc(-c2cc(C(=O)N3CCN(c4ccccc4)CC3)c3ccccc3n2)cc1,AC50,CAAX prenyl protease 2,4.71 µM (active)
same,AC50,[7],57.4 µM (active)
CCc1nc2cc([N+](=O)[O-])c([N+](=O)[O-])cc2[nH]1,IC50,[8],> 79.4 µM (inactive)
same,IC50,[9],> 79.4 µM (inactive)
same,IC50,[10],> 79.4 µM (inactive)
O=C(Nc1nnc(-c2ccccc2)o1)c1nc2ccccc2s1,IC50,SUMO-activating enzyme,16.3 µM (active)
same,EC50,[11],7.07 µM (active)
C=CCOc1c(Br)cc(C2C3=C(CCCC3=O)N(C)C3=C2C(=O)CCC3)cc1OCC,IC50,[12],0.865 µM (active)
same,IC50,[13],41.2 µM (active)
COc1ccc(C(=O)Nn2cnc3scc(-c4cccs4)c3c2=O)c(O)c1,EC50,"Troponin, cardiac muscle",> 71.5 µM (inactive)
Cc1cccc(NC(=S)Nc2ccc(S(N)(=O)=O)cc2)c1,IC50,[14],> 100 µM (inactive)
Cc1nc(N2CCN(C(=O)C3CC3)CC2)c2c3c(sc2n1)CC(C)CC3 (centres undefined),EC50,Cannabinoid receptor 2 [15],> 32 µM (inactive)
same,IC50,Cannabinoid receptor 1 [16],17.9 µM (inactive)
same,IC50,[17],> 32 µM (inactive)
same,IC50,[18],10.6 µM (inactive)
same,EC50,Cannabinoid receptor 1 [19],> 32 µM (inactive)
same,EC50,[20],> 32 µM (inactive)
same,IC50,Cannabinoid receptor 2 [21],> 32 µM (inactive)
